Legend:
[1] = Stability with time of a second solution of a permanent waving composition containing a direct dye (storage at 45° C.); assay type: physicochemical; settings: for pH (45° C.) Initial / pH (45° C.) 2 weeks / pH (45° C.) 4 weeks: 0.2% dye in second solution; for pH (45° C.) 2 weeks / pH (45° C.) 4 weeks: stored at 45° C.; for Ratio of dye that remains solubilized after 4 weeks at 45° C.: absorbance at maximum wavelength, initial value defined as 100%
Description: Each of an acidic dye, tar-series pigment and cationic dye which are a direct dye was weighed out so as to be 0.2% by weight in terms of the active ingredient, and added to a second solution of a permanent waving composition formulated as shown in Table 1 to stir.
As the acidic dye. […] In the tar-series pigment, HC BLUE 2 and HC YELLOW 2 (manufactured by JAMS ROBINSON Inc.) were used. And, as the […] dye, (A): (1-methyl-1-paramethoxyphenyl)-2-(1-methane-4N-methylpyridinium)hydrazine chloride, (B): 4-dimethylaminophenylazo-2N— methyl-5N-methylimidazolium chloride and (C): 4-aminophenylazo-2N-methyl-5N-methylimidazo ium chloride (manufactured by Ciba Specialty Chemicals, Inc.) were used.
The sample was stored at 45° C., and stability of the sample with time was evaluated for solubility of the dye in the sample, pH, absorption spectra in a visible light range.
The evaluation for solubility of the dye was conducted based on the following criteria: • ◯: No change in solubility compared to that measured two weeks before; and • X: Precipitation of the dye
A pH was measured with a pH meter manufactured by HORIBA Inc. Limited. Moreover, the evaluation for the absorption spectra in the visible light range was conducted by measuring an absorbance at the maximum absorbance wavelength in the absorption spectra in the visible light range using HITACHI U-3210 (using a quartz cuvette having 10 mm optical path) and calculating a ratio of the dye that remains solubilized after 4 weeks by defining the initial measured solubilized value as 100%.

[2] = Dyeability test of second solution containing a dye on goat hair; parameters: key: ⊚: Deeply dyed and an original white color of the goat hair is not prominent; ◯: Dyed to a degree that an original white color of the goat hair is not prominent; Δ: Dyed, but prominent in an original white color of the goat hair; X: Only an original white color of the goat hair; settings: first solution 30° C. 15 minutes, then second solution with 0.2% dye
Experimental: To approximately 2 g of goat hair, approximately 2 g of a first solution of a permanent waving composition was applied, and the hair was allowed to stand in a constant temperature bath at 30° C. for 15 minutes. Then, approximately 2 g of the same filtered second solution of a permanent waving composition as that described in Test Example 1 was applied to the hair, and the hair was shampooed and treated with a hair rinse conditioner, and adequately rinsed with water. After drying the hair, dyeability for the hair was evaluated.
(§1) Thereafter, the hair which was dyed in the dyeability test was allowed to stand for 24 hours after dyeing, then immersed into 300 ml of an aqueous solution containing 0.03/sodium polyoxyethylene (2 E.O.) alkyl (12, 13) ether sulfate at 80° C. for 10 minutes. Then, the hair was adequately rinsed with warm water, dried, and fastness was evaluated by observing dyeability for the hair after the test. The evaluation was conducted based on the following criteria: • ⊚: Deeply dyed and an original white color of the goat hair is not prominent • ◯: Dyed to a degree that an original white color of the goat hair is not prominent • Δ: Dyed, but prominent in an original white color of the goat hair • X: Only an original white color of the goat hair.

[3] = Fastness test of dyed goat hair (surfactant solution at 80° C. for 10 minutes); parameters: key: ⊚: Deeply dyed and an original white color of the goat hair is not prominent; ◯: Dyed to a degree that an original white color of the goat hair is not prominent; Δ: Dyed, but prominent in an original white color of the goat hair; X: Only an original white color of the goat hair; settings: 24 hours after dyeing, surfactant solution 80° C. 10 minutes
Experimental: as §1

[4] = Effect of water content (propylene glycol) on dyeability (Test Example 6); parameters: species or system goat; settings: 0.05% solution, pH 9
Description: (§2) Thereafter, each 2 g of the first solution and the second solution not containing the dye was applied to the permanently waved hair under the same condition as that described above. After the treatment with the second solution, the hair was adequately washed with water, and 2 g of a 0.05/aqueous solution of the cationic dye (B) which had been adjusted to pH 9 was applied to the hair which had been permanently waved and the untreated hair, respectively, which were allowed to stand at a treatment temperature of 30° C. for a treatment period of 30 minutes. Then, the hair was shampooed and treated with a hair rinse conditioner, adequately rinsed with water and dried, and dyeability was evaluated. Dyeability was evaluated according to a brightness of JIS standard color chart. The smaller value thereof indicates higher dyeability.
0.05% aqueous solutions of a cationic dye (C), each containing 0, 10, 20, 30, 40 and 50% propylene glycol respectively, were adjusted to pH 9.4 g of each solution was applied to approximately 2 g of goat hair, and the goat hair was allowed to stand in a constant temperature bath at 30° C. for 30 minutes. Then, the hair was shampooed and treated with a hair rinse conditioner, and adequately washed with water and dyeability was evaluated according to the same manner as that described in Test Example 4.

[5] = Effect of pH of cationic dye solution on dyeability (Test Example 5); parameters: species or system goat; settings: 0.05% aqueous solution, 30 minutes
Description: as §2
A 0.05% aqueous solution of a cationic dye (C) was adjusted to pH 3, 5, 7, 9 or 11, and 4 g thereof was applied to approximately 2 g of goat hair. The, hair was allowed to stand in a constant temperature bath at 30° C. for 30 minutes. Then, the hair was shampooed and treated with a hair rinse conditioner, adequately washed with water and dried, and dyeability was evaluated according to the same manner as that described in Test Example 4.

Row | Structure (SMILES) | pH (45° C.) Initial [1] | pH (45° C.) 2 weeks [1] | pH (45° C.) 4 weeks [1] | Dyeability [2] | Fastness [3] | Ratio of dye that remains solubilized after 4 weeks at 45° C. [1] [%] | Stability with time in the second solution of the permanent waving composition ([1]; summary of Table 2, 45° C.) | Dyeability (JIS brightness) ([4]; propylene glycol 0 wt %) | Dyeability (JIS brightness) ([4]; propylene glycol 10 wt %) | Dyeability (JIS brightness) ([4]; propylene glycol 20 wt %) | Dyeability (JIS brightness) ([4]; propylene glycol 30 wt %) | Dyeability (JIS brightness) ([4]; propylene glycol 40 wt %) | Dyeability (JIS brightness) ([4]; propylene glycol 50 wt %) | Dyeability (JIS brightness) ([5]; pH 3, 30° C.) | Dyeability (JIS brightness) ([5]; pH 5, 30° C.) | Dyeability (JIS brightness) ([5]; pH 7, 30° C.) | Dyeability (JIS brightness) ([5]; pH 9, 30° C.) | Dyeability (JIS brightness) ([5]; pH 11, 30° C.)
1 | Nc1c(N=Nc2ccc([N+](=O)[O-])cc2)c(S(=O)(=O)[O-])cc2cc(S(=O)(=O)[O-])c(N=Nc3ccccc3)c(O)c12.[Na+].[Na+] [BLACK 401] | 6.43 | 6.44 | 6.45 | ◯ | X |  |  |  |  |  |  |  |  |  |  |  |  | 
2 | O=[N+]([O-])c1cc(N(CCO)CCO)ccc1NCCO [HC BLUE 2] | 6.43 | 6.44 | 6.15 | ◯ | X | 0.00 |  |  |  |  |  |  |  |  |  |  |  | 
3 | O=[N+]([O-])c1ccccc1NCCO [HC YELLOW 2] | 6.43 | 6.42 | 6.44 | ◯ | X | 97.6 | stable with time |  |  |  |  |  |  |  |  |  |  | 
4 | O=S(=O)([O-])c1ccc(N=Nc2c(O)ccc3ccccc23)cc1.[Na+] [ORANGE 205] | 6.44 | 6.43 | 6.45 | Δ | X | 98.7 |  |  |  |  |  |  |  |  |  |  |  | 
5 | Cc1ccc(Nc2ccc(O)c3c2C(=O)c2ccccc2C3=O)c(S(=O)(=O)[O-])c1.[Na+] [PURPLE 401] | 6.54 | 6.52 | 6.54 | X | X | 92.2 |  |  |  |  |  |  |  |  |  |  |  | 
6 | COc1ccc(N(C)N=Cc2cc[n+](C)cc2)cc1 [cationic dye (A), (1-methyl-1-paramethoxyphenyl)-2-(1-methane-4N-methylpyridinium)hydrazine chloride] | 6.43 | 6.42 | 6.42 | ⊚ | ⊚ | 99.6 |  |  |  |  |  |  |  |  |  |  |  | 
7 | Cn1cc[n+](C)c1N=Nc1ccc(N)cc1 [cationic dye (C), 4-aminophenylazo-2N-methyl-5N-methylimidazo ium chloride] | 6.41 | 6.40 | 6.41 | ⊚ | ⊚ | 102.0 |  | 6.5 | 6.8 | 7.0 | 7.7 | 8.5 | 9.0 | 6.5 | 6.0 | 5.7 | 5.3 | 5.0

— US6863883B1, “Permanent wave agent composition having dyeing effect and method for dyeing hair using the same” (Henkel Lion Cosmetics Co. Ltd., priority 1998, dated 2005)
